In patent publication EP0293880B1, “Antihyperlipidemic and antiatherosclerotic urea compounds” (priority 1987, dated 1988):

biological target: acyl-CoA:cholesterol acyl-transferase (ACAT); test: In vitro ACAT inhibition test (radio-labeled cholesterol oleate formed from radio-labeled oleic acid in rabbit intestinal microsomes); format: biochemical; settings: tissue preparation containing rabbit intestinal microsomes; concentration required to inhibit 50% expression of the enzyme; read-out: IC₅₀
Experimental: The ability of representative compounds of the present invention to inhibit ACAT was measured using an in vitro test more fully described in Field, F. J. and Salone, R. G., Biochemica et Biophysica 712: 557-570 (1982). The test assesses the ability of a test compound to inhibit the acylation of cholesterol by oleic acid by measuring the amount of radio-labeled cholesterol oleate formed from radio-labeled oleic acid in a tissue preparation containing rabbit intestinal microsomes. The data appear in Table 1 where they are expressed as IC₅₀ values; i.e. the concentration of test compound required to inhibit 50% expression of the enzyme.

`CC(C)c1cccc(C(C)C)c1NC(=O)NCC1(c2ccccc2)CCCCC1` [Example 14] and `CC(C)c1cccc(C(C)C)c1NC(=O)NCC1(c2ccccc2)CCCC1` [Example 13, N-[2,6-bis(1-methylethyl)phenyl]-N'-[(1-phenylcyclopentyl)methyl]urea] are within 1.5-fold of each other in IC50: 21 nM for the first, 17 nM for the second.

`CCc1cccc(C(C)C)c1NC(=O)NCC1(c2ccccc2)CCCC1` [Example 22, N-[2-ethyl-6-(1-methylethyl)-phenyl]-N'-[(1-phenylcyclopentyl)methyl]urea] and `CCc1cccc(C(C)C)c1NC(=O)NCC1(c2ccccc2)CCCCC1` [Example 19, N-[2-ethyl-6-(1-methylethyl)-phenyl]-N'-[(1-phenylcyclohexyl)methyl]urea] are within 1.5-fold of each other in IC50: 25 nM for the first, 20 nM for the second.

Going from `CC(C)c1cccc(C(C)C)c1NC(=O)NC1(c2cccs2)CCCCC1` [Example 8, N-[2,6-bis(1-methylethyl)]-N'-[1-(2-thienyl)cyclohexyl]urea] to `Cc1cccc(C(C)C)c1NC(=O)NC1(c2cccs2)CCCCC1` [Example 15, N-[2-methyl-6-(1-methylethyl)-phenyl]-N'-[1-(2-thienyl)cyclohexyl]urea], the IC50 rises from 43 nM to 230 nM (5.3-fold).

First: CCc1cccc(CC)c1NC(=O)NC1(c2cccs2)CCCCC1 [Example 7, N-(2,6-diethylphenyl)-N'-[1-(2-thienyl)cyclohexyl]urea]
Second: Cc1cccc(C)c1NC(=O)NC1(c2cccs2)CCCCC1 [Example 6, N-(2,6-dimethylphenyl)-N'-[1-(2-thienyl)cyclohexyl]urea]
The IC50 of the first is 2.7-fold lower: 48 nM for the first, 130 nM for the second.

Compared with `CCc1cccc(CC)c1NC(=O)NCC1(c2ccccc2)CCCC1` [Example 12, N-(2,6-diethylphenyl)-N'-[(1-phenylcyclopentyl)methyl]urea], `CCc1cccc(CC)c1NC(=O)NCC1(c2ccccc2)CCCCC1` [Example 9, N-(2,6-diethylphenyl)-N'-[(1-phenylcyclohexyl)methyl]urea] is 3.4-fold higher in IC50: 15 nM for the first, 51 nM for the second. The first is the more potent here.

`O=C(Nc1ccc(F)cc1F)NC1(c2cccs2)CCCCC1` [Example 23, N-(2,4-difluorophenyl)-N'-[1-(2-thienyl)cyclohexyl]urea] and `Cc1cccc(C(C)(C)C)c1NC(=O)NC1(c2cccs2)CCCCC1` [Example 16, N-[2-(1,1-dimethylethyl)-6-methyl-phenyl]-N'-[1-(2-thienyl)cyclohexyl]urea] are within 1.5-fold of each other in IC50: 370 nM for the first, 256 nM for the second.

Going from `Cc1cccc(C)c1NC(=O)NCC1(c2ccccc2)CCCC1` [Example 10, N-(2,6-dimethylphenyl)-N'-[(1-phenylcyclopentyl)methyl]urea] to `Cc1cccc(C)c1NC(=O)NCC1(c2ccccc2)CCCCC1` [Example 11, N-(2,6-dimethylphenyl)-N'-[(1-phenylcyclohexyl)methyl]urea], the IC50 falls from 154 nM to 81 nM (1.9-fold). The second is the more potent here.

Going from `Cc1cccc(C(C)C)c1NC(=O)NCC1(c2ccccc2)CCCC1` [Example 20, N-[2-methyl-6-(1-methylethyl)-phenyl]-N'-[(1-phenylcyclopentyl)methyl]urea] to `Cc1cccc(C(C)C)c1NC(=O)NCC1(c2ccccc2)CCCCC1` [Example 17, N-[2-methyl-6-(1-methylethyl)-phenyl]-N'-[(1-phenylcyclohexyl)methyl]urea], the IC50 rises from 16 nM to 58 nM (3.6-fold).

Going from `O=C(NCC1(c2ccccc2)CCCCC1)Nc1ccc(F)cc1F` [Example 25, N-(2,4-difluorophenyl)-N'-[(1-phenylcyclohexyl)methyl]urea] to `O=C(NCC1(c2ccccc2)CCCC1)Nc1ccc(F)cc1F` [Example 24, N-(2,4-difluorophenyl)-N'-[(1-phenylcyclopentyl)methyl]urea], the IC50 rises from 790 nM to 1280 nM (1.6-fold).

`O=C(NCC1(c2ccccc2)CCCCC1)Nc1c(Br)cc(F)cc1Br` [Example 26, N-(2,6-dibromo-4-fluorophenyl)-N'-[(1-phenyl-cyclohexyl)methyl]urea] and `Cc1cccc(C(C)(C)C)c1NC(=O)NCC1(c2ccccc2)CCCCC1` [Example 18, N-[2-(1,1-dimethylethyl)-6-methylphenyl]-N'-[(1-phenylcyclohexyl)methyl]-urea] are within 1.5-fold of each other in IC50: 39 nM for the first, 54 nM for the second.

Going from `COc1cc(OC)c(NC(=O)NC2(c3ccccc3)CCCC2)c(OC)c1` [Example 5, N-(1-phenylcyclopentyl)-N'-(2,4,6-trimethoxyphenyl)urea] to `Cc1cccc(C)c1NC(=O)NC1(c2ccccc2)CCCC1` [Example 1, N-(2,6-dimethylphenyl)-N'-(1-phenylcyclopentyl)urea], the IC50 falls from 700 nM to 80 nM (8.8-fold).

Compared with `CCc1cccc(CC)c1NC(=O)NCC1(c2ccccc2)CC1` [Example 4, N-(2,6-diethylphenyl)-N'-[(1-phenylcyclopropyl)methyl]urea], `CCc1cccc(CC)c1NC(=O)NC1(c2ccccc2)CCC1` [Example 2, N-(2,6-diethylphenyl)-N'-(1-phenylcyclobutyl)urea] is 2.6-fold higher in IC50: 88 nM for the first, 230 nM for the second.

Compared with `Cc1cccc(C(C)(C)C)c1NC(=O)NCC1(c2ccccc2)CCCC1` [Example 21, N-[2-(1,1-dimethylethyl)-6-methylphenyl]-N'-[(1-phenylcyclopentyl)methyl]-urea], `CCc1cccc(CC)c1NC(=O)NC1(c2ccccc2)CCCC1` [Example 3, N-(2,6-diethylphenyl)-N'-(1-phenylcyclopentyl)urea] is 6.7-fold higher in IC50: 18 nM for the first, 120 nM for the second.

system: not listed separately; test: In vivo screen PCC (cholesterol-fed rats, total blood cholesterol); set-up: species or system male Sprague-Dawley rats; settings: change of total blood cholesterol versus control; 0.05% of the test drug in the diet; after one week
From the text: In one in vivo screen, designated PCC, male Sprague-Dawley rats (approximately 200 g body weight) are randomly divided into groups and provided ad libidum a regular chow diet (Purina No. 5002, Ralston Purina Co., 711 West Fuesser Road, Mascoutah, Illinois, 62224, USA), supplemented with 5.5% peanut oil, 1.5% cholesterol, and 0.3%-0.5% cholic acid, together with 0.05% of the test drug which is admixed into the diet. After one week the animals are etherized and a blood sample is taken from the heart and mixed with 0.14% ethylenediamine tetraacetic acid (EDTA) to measure the total cholesterol.

Going from `CC(C)c1cccc(C(C)C)c1NC(=O)NC1(c2cccs2)CCCCC1` [Example 8, N-[2,6-bis(1-methylethyl)]-N'-[1-(2-thienyl)cyclohexyl]urea] to `CC(C)c1cccc(C(C)C)c1NC(=O)NCC1(c2ccccc2)CCCC1` [Example 13, N-[2,6-bis(1-methylethyl)phenyl]-N'-[(1-phenylcyclopentyl)methyl]urea], the “% Change” value falls from -69% to -73%.

same assay, conditions: rats on chow diet with 5.5% peanut oil, 1.5% cholesterol, 0.3%-0.5% cholic acid; 0.05% of the test drug admixed into the diet; after one week

For `CC(C)c1cccc(C(C)C)c1NC(=O)NC1(c2cccs2)CCCCC1` [Example 8, N-[2,6-bis(1-methylethyl)]-N'-[1-(2-thienyl)cyclohexyl]urea], the “Total Blood Cholesterol” value was 60 (Control = 181) mg/dl.
With `CC(C)c1cccc(C(C)C)c1NC(=O)NCC1(c2ccccc2)CCCC1` [Example 13, N-[2,6-bis(1-methylethyl)phenyl]-N'-[(1-phenylcyclopentyl)methyl]urea] the “Total Blood Cholesterol” value was 61 (Control = 224) mg/dl.
